Measured values published in US7442681B2, “Method of inhibiting vascular permeability” (University of Virginia Patent Foundation, priority 2004, dated 2008).
Where no end group is shown, it is not given here.

Legend:
murine lungs = assay: Histology of murine lungs treated with peptide and LPS; type: in vivo; conditions: mice, peptide 1 mg ip, no LPS
Source text: FIG. 9. Histology of murine lungs treated with PAK blocking peptide and LPS. FIGS. 9A (200× magnification), 9B (400×), and 9C (200×) represent photomicrographic images. […] There is some phosphoPAK staining (visible as brown stain in the original color micrographs) present in epithelial structures, alveolar walls (composed of mixed cell types), and vessel endothelium and smooth muscle. Arrow indicates a normal small vessel with red blood cells and few circulating leukocytes. Tissues were counterstained with hematoxylin.
FIG. 10. Histology of murine lungs treated with PAK blocking peptide and LPS. FIGS. 10A (200× magnification), 10B (400×), and 10C (200×) represent photomicrographic images. […] Vessel sections (arrow) indicate that LPS highly increases the amount of pPAK in vessel walls, and also produces inflammatory enlargement of vessels, with an increase in numbers of recruited neutrophils and monocytes admixed with red blood cells and intravasating through vessel walls, an indicator of acute inflammation. Some alveolar tissues are completely eroded and filled with exudate and dead cells (FIG. 10C). Tissues were counterstained with hematoxylin.
FIG. 11. Histology of murine lungs treated with PAK blocking peptide and LPS. FIGS. 11A (200× magnification), 11B (400×), and 11C (200×) represent photomicrographic images. […]

myosin light chain (MLC) = assay: MLC phosphorylation, Western blot, BAEC; type: cell-based, bovine; conditions: 25 ng/ml VEGF, 20 μg/ml peptide or 5 μM ML7
Method: FIG. 6. Regulation of myosin light chain (MLC) phosphorylation by PAK. FIG. 6A: confluent BAEC on FN were treated with vehicle only (+vehicle), 20 μg/ml control peptide (+con pep), 20 μg/ml PAK-blocking peptide (+PAK pep; SEQ ID NO:1), 5 μM ML7 (+ML7) with (+) or without (−) 25 ng/ml VEGF. […] FIG. 6B: as described in A, BAEC were pretreated with 20 μg/ml control peptide (+con pep) or PAK-blocking peptide (+PAK pep) followed by 25 ng/ml of VEGF, 25 ng/ml bFGF, 10 μM histamine, 0.1 units/ml thrombin, or 10 ng/ml of TNF. Upper row, anti-phospho-MLC (pMLC); middle row, total MLC (total MLC); and lower row, pMLC plus an antigenic phospho-peptide (pMLC+AP). […]
Western Blots—Confluent cells were starved in 0.5% serum for 18 h, treated as described in the legends to FIGS. 1, 2, 3 and 6, washed with cold PBS, and then harvested by scraping in cold lysis buffer (25 mM Tris, pH 7.4, 1% Nonidet P-40, 0.5% sodium deoxycholate, 137 mM NaCl, 50 μM EDTA, 10 μg/ml each aprotinin and leupeptin, 1 mM phenylmethylsulfonyl fluoride). […] Protein was transferred to polyvinylidene difluoride membrane, and blots were probed with primary antibodies (described under “Fluorescence Imaging”) followed by horseradish peroxidase-conjugated secondary antibodies (Jackson ImmunoResearch, Inc.). […]

BAEC = assay: Paracellular pore formation assay, BAEC on filters; type: cell-based, bovine; conditions: with or without VEGF
Method: FIG. 5. Effects of PAK on remodeling of cell-cell junctions and the actin cytoskeleton. FIG. 5A: confluent BAECs on coverslips were serum-starved for 18 hours and then treated with 25 ng/ml VEGF. The cells were fixed and stained for phospho-PAK and F-actin. Images show phospho-PAK (pPAK) and F-actin (F-actin) at the indicated times after the addition of VEGF. White arrows indicate pores between cells. Scale bar=50μ. FIG. 5B: phospho-PAK (pPAK) and F-actin (F-actin) are shown in cells prepared and treated as described in FIG. 5A after 60 minutes with VEGF with peptide additions. […]
Monolayer Permeability and Paracellular Pore Formation Assays—Cells were plated onto FN-coated polycarbonate membranes (3.0-μ pore size; Transwell, Costar) at 6×10^4 cells/cm^2 and cultured for 4 days with medium changes every other day until confluence was reached. […] Medium was harvested from the lower chamber, and HRP activity was determined calorimetrically by absorbance at 490 nm to detect the […] reaction product after 15 minutes of incubation with 0.5 mM guaiacol, 50 mM Na2HPO4, and 0.6 mM H2O2. […] To quantify paracellular pore formation and correlate to permeability, the fixed cell monolayer-covered filters were stained for 2 hours with Coomassie Blue (0.25% in 1:1:2 of methanol:glacial acetic acid:double distilled (dd)H2O), destained in the same solution minus dye, rinsed in ddH2O, and air-dried. […]

“YGRKKRRQRRRGKPPAPPMRNTSTM [PAK-blocking peptide]” was tested, and the “lung histology, peptide-only” value (murine lungs) was “equivalent to untreated mice”.

For `O=S(=O)(c1cccc2c(I)cccc12)N1CCCNCC1` [ML7], the “MLC phosphorylation induced by VEGF” value (myosin light chain (MLC)) was “inhibited”.

B1: PAK AID: PAK autoinhibitory domain, residues 83-149, cloned into the pDsRed1-N1 vector and expressed by transient transfection (protein, UniProt Q13153 83-149, looked up, fragment)
chain: HTIHVGFDAVTGEFTGMPEQWARLLQTSNITKSEQKKNPQAVLDVLEFYNSKKTSNSQKYMSFTDKS
modifications: DsRed fusion
In the case of B1, the “formation of pores between adjacent cells” value (BAEC) is reported as “inhibited pore formation”.
